Results on 27 compounds are retold here after ChEMBL document CHEMBL5360526, “Discovery of BET specific bromodomain inhibitors with a novel scaffold” (Bioorg Med Chem, 2022).

What is called IC50 is the point on the concentration scale where inhibition reaches its midpoint.

The target in experiment [1] is T1, Bromodomain-containing protein 4 (Homo sapiens, UniProt O60885). The experiment can be described thus: Inhibition of N-terminal GST-tagged/C-terminal 6His-tagged BRD4 BD1 (47 to 170 residues) (unknown origin) expressed in Escherichia coli BL21 (DE3) using SGRGK(Ac)GGK(Ac)GLGK(Ac) GGAK(Ac)RHRK-biotinylated peptide as substrate incubated for 60 mins by alpha screen assay. (In general: In Alpha technology, singlet oxygen from a donor bead excites a nearby acceptor bead.)

Experiment [2] concerns the target T1, Bromodomain-containing protein 4. Description: Inhibition of BRD4 BD2 (unknown origin) using SGRGK(Ac)GGK(Ac)GLGK(Ac) GGAK(Ac)RHRK-biotinylated peptide as substrate incubated for 60 mins by alpha screen assay.

As to `CN(C)S(=O)(=O)Nc1ccc(N2CCS(=O)(=O)CC2)nc1Nc1ccc2[nH]nnc2c1`, the IC50 in experiment [1] is 20.1 µM; in experiment [2], 10.4 µM.

For `CC(C)Nc1ccc(NS(=O)(=O)C2CC2)c(Nc2ccc3[nH]nnc3c2)n1`, the IC50 in experiment [1] is 1.83 µM; in experiment [2], 1.8 µM.

On to `CC(C)Nc1ccc(NS(=O)(=O)C2CCCCC2)c(Nc2ccc3[nH]nnc3c2)n1`, for which the IC50 is 0.66 µM in experiment [1] and 0.9 µM in experiment [2].

On to `CN(C)S(=O)(=O)Nc1ccc(NCC2CCCO2)nc1Nc1ccc2[nH]nnc2c1` (configuration not stated), for which the IC50 is 9.6 µM in experiment [1] and 8.42 µM in experiment [2].

Take `CC(C)Nc1ccc([N+](=O)[O-])c(Nc2ccc3c(c2)nnn3C)n1`: the results for the IC50 in experiment [1] and in experiment [2] were 4.22 µM and 10.3 µM, respectively.

Take `CN(C)S(=O)(=O)Nc1ccc(NCc2ccc3c(c2)OCO3)nc1Nc1ccc2[nH]nnc2c1`: the IC50 in experiment [1] stood at 7.7 µM.

Turning to `CC(C)Nc1ccc(NS(=O)(=O)c2ccc(F)cc2F)c(Nc2ccc3[nH]nnc3c2)n1`, the IC50 in experiment [1] is 0.8 µM; in experiment [2], 0.72 µM.

Take `CC(C)Nc1ccc([N+](=O)[O-])c(Nc2ccc3c(c2)nnn3C(=O)Nc2ccccc2)n1`: the values for the IC50 in experiment [1] and in experiment [2] were 5.13 µM and 5.84 µM, respectively.

Turning to `CN(C)S(=O)(=O)Nc1ccc(NCCc2ccccc2)nc1Nc1ccc2[nH]nnc2c1`, half-maximal inhibition in experiment [1] (IC50) was put at 5.25 µM.

With `CC(C)Nc1ccc(NS(=O)(=O)c2ccccc2)c(Nc2ccc3[nH]nnc3c2)n1`, the IC50 is 0.51 µM in experiment [1] and 0.64 µM in experiment [2].

As for `CN(C)S(=O)(=O)Nc1ccc(NCCO)nc1Nc1ccc2[nH]nnc2c1`, the IC50 in experiment [1] was 5.7 µM; in experiment [2], 8.25 µM.

As for `CC(C)Nc1ccc([N+](=O)[O-])c(Nc2ccc3c(c2)nnn3C(=O)c2ccccc2)n1`, the IC50 was 4.27 µM in experiment [1] and 10.2 µM in experiment [2].

In the case of `CC(C)Nc1ccc(NS(=O)(=O)c2c(F)cccc2F)c(Nc2ccc3[nH]nnc3c2)n1`, the IC50 in experiment [1] was found to be 0.78 µM; in experiment [2] it was 1.04 µM.

As to `CC(C)Nc1ccc(NS(=O)(=O)c2ccccc2F)c(Nc2ccc3[nH]nnc3c2)n1`, the half-maximal inhibitory concentration (IC50) worked out at 1.42 µM in experiment [1] and 1.66 µM in experiment [2].

Consider `CN(C)S(=O)(=O)Nc1ccc(NCC2CC2)nc1Nc1ccc2[nH]nnc2c1`, for which the IC50 in experiment [1] amounted to 4.45 µM; in experiment [2] it was 5.63 µM.

As to `CN(C)S(=O)(=O)Nc1ccc(NCc2ccco2)nc1Nc1ccc2[nH]nnc2c1`, the IC50 in experiment [1] came out at 6.22 µM; in experiment [2], 23 µM.

As to `CN(C)S(=O)(=O)Nc1ccc(NCCN2CCOCC2)nc1Nc1ccc2[nH]nnc2c1`, the values for the IC50 in experiment [1] and in experiment [2] were 7.97 µM and 11.5 µM, respectively.

With `CCS(=O)(=O)Nc1ccc(NC(C)C)nc1Nc1ccc2[nH]nnc2c1`, the IC50 was 3.86 µM in experiment [1] and 4.47 µM in experiment [2].

On to `CC(C)Nc1ccc(NC(=O)c2ccccc2)c(Nc2ccc3[nH]nnc3c2)n1`, for which the values for the IC50 in experiment [1] and in experiment [2] were 3.98 µM and 12.3 µM, respectively.

On to `CC(C)Nc1ccc([N+](=O)[O-])c(Nc2ccc3c(c2)nnn3S(=O)(=O)c2ccccc2)n1`, for which the half-maximal inhibitory concentration (IC50) was determined as 3.1 µM in experiment [1] and 4.47 µM in experiment [2].

On to `COC(=O)NS(=O)(=O)Nc1ccc(NC(C)C)nc1Nc1ccc2[nH]nnc2c1`, for which the IC50 was 1.18 µM in experiment [1] and 1.06 µM in experiment [2].

As to `CN(C)S(=O)(=O)Nc1ccc(NCc2ccc(F)cc2F)nc1Nc1ccc2[nH]nnc2c1`, the IC50 in experiment [1] amounted to 7.64 µM; in experiment [2] it was 11.3 µM.

In turn, `CN(C)S(=O)(=O)Nc1ccc(NCc2ccc(F)cc2)nc1Nc1ccc2[nH]nnc2c1` came in with an IC50 in experiment [1] of 5.24 µM.

The compound `CN(C)S(=O)(=O)Nc1ccc(NCc2cccc3ccccc23)nc1Nc1ccc2[nH]nnc2c1` had an IC50 in experiment [1] of 7.91 µM.

In experiment [1], `CN(C)S(=O)(=O)Nc1ccc(NCc2ccccc2)nc1Nc1ccc2[nH]nnc2c1` registered an IC50 of 2.23 µM.

For the compound `CN(C)S(=O)(=O)Nc1ccc(NCC(c2ccccc2)c2ccccc2)nc1Nc1ccc2[nH]nnc2c1`, the IC50 in experiment [1] stood at 8.83 µM.

Turning to `CN(C)S(=O)(=O)Nc1ccc(NCCc2c[nH]c3ccccc23)nc1Nc1ccc2[nH]nnc2c1`, the IC50 in experiment [1] was 3.62 µM.
